Test system: glioblastoma brain cancer cell line LN-229
Experiment: Cytotoxicity assay (CCK8 viability)
Type: cell-based
Conditions: Homo sapiens, LN-229 cells, 48 hrs
Experimental: Cytoxocity assay: Cells are seeded on a 96 well polystyrene plate in full serum media at a density of 75,000 cells per milliliter, 100 μL per well. Plates are incubated at 37° C. and 5% CO2 for 24 hours to allow cell attachment. Drug solutions are prepared in DMSO at 100× concentration and mixed 1:100 in 1% FBS media to yield the desired concentration. Drug-media mixtures are vortexed immediately prior to administration to cells. […] of Cell Counting Kit 8 (CCK8, Dojindo# CK04-11) is added to each well to colormetrically assess viability. After 2-4 hours of incubation with the CCK8 dye, absorbance is read at 450 nm by a BioTek Synergy 2 plate reader.
The cytotoxicity of selected compounds against the glioblastoma brain cancer cell line LN-229 is depicted in Table 1.

`CCCCCCC(C)(C)c1cc(O)c2c(-c3ccccc3)coc2n1` [Compound 4c, 6-(2-Methyloctan-2-yl)-3-phenylfuro[2,3-b]pyridin-4-ol] showed an EC50 of 33.6 µM.

Source: US8431595B2, “Furanopyridine cannabinoid compounds and related methods of use” (The University of Tennessee Research Foundation, priority 2009, dated 2013)
